{"source": "ChEMBL document CHEMBL6177939", "about": "“The role of silicon in drug discovery: a review” (RSC Med Chem, 2024)", "key": {"[1]": {"system": "Human immunodeficiency virus 2", "test": "Antiviral activity against HIV-2 ROD infected in human MT-4 cells assessed as reduction in virus-induced cytopathic effect incubated for 5 days by spectrophotometric based MTT assay", "format": "functional, organism-based", "conditions": "Human immunodeficiency virus 2, ROD, MT4, 120 h"}, "[2]": {"test": "Agonist activity at rat GPR81 transfected in T-REX-CHO cells by cAMP assay", "format": "cell-based"}, "[3]": {"molecular_target": "Hydroxycarboxylic acid receptor 2 (Rattus norvegicus, UniProt Q80Z39)", "sequence (Q80Z39 whole entry)": "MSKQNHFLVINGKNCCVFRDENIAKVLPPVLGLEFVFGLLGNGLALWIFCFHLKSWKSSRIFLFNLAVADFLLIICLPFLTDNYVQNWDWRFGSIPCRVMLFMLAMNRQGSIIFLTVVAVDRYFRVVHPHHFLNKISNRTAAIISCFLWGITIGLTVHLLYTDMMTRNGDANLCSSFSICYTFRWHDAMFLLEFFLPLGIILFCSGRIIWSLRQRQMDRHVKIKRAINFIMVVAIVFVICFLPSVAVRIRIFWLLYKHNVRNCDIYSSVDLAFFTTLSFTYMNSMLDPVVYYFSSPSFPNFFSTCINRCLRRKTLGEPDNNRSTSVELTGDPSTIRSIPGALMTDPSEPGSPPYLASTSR", "test": "Agonist activity at rat GPR109A transfected in T-REX-CHO cells by cAMP assay", "format": "cell-based"}, "HT-1080 [4]": {"system": "HT-1080", "test": "Cytotoxicity against human HT-1080 cells assessed as reduction in cell growth by measuring lethal concentration for 72 hrs by MTT assay", "format": "functional"}, "MG-22A [5]": {"system": "MG-22A", "test": "Cytotoxicity against mouse MG-22A cells assessed as reduction in cell growth by measuring lethal concentration for 72 hrs by MTT assay", "format": "functional"}, "[6]": {"system": "Staphylococcus epidermidis", "test": "Antibacterial activity against Staphylococcus epidermidis assessed as inhibition of bacterial growth incubated for 24 hrs by nutrient agar plate method", "format": "functional"}, "HT-1080 [7]": {"system": "HT-1080", "test": "Cytotoxicity against human HT-1080 cells assessed as reduction in cell growth measured for 72 hrs by crystal violet staining based analysis", "format": "functional", "conditions": "HT-1080, 72 h"}, "MG-22A [8]": {"system": "MG-22A", "test": "Cytotoxicity against mouse MG-22A cells assessed as reduction in cell growth measured for 72 hrs by crystal violet staining based analysis", "format": "functional"}, "Pseudomonas aeruginosa": {"system": "Pseudomonas aeruginosa", "test": "Antibacterial activity against Pseudomonas aeruginosa PTCC 1074 assessed as reduction in cell growth incubated for 24 hrs by Mueller-Hinton Broth micro dilution method", "format": "functional"}, "Staphylococcus aureus [9]": {"system": "Staphylococcus aureus", "test": "Antibacterial activity against Staphylococcus aureus PTCC 1112 assessed as reduction in cell growth incubated for 24 hrs by Mueller-Hinton Broth micro dilution method", "format": "functional"}, "Salmonella typhimurium": {"system": "Salmonella typhimurium", "test": "Antibacterial activity against Salmonella enterica subsp. enterica serovar Typhimurium PTCC 1609 assessed as reduction in cell growth incubated for 24 hrs by Mueller-Hinton Broth micro dilution method", "format": "functional"}, "Escherichia coli [10]": {"system": "Escherichia coli", "test": "Antibacterial activity against Escherichia coli PTCC 1330 assessed as reduction in cell growth incubated for 24 hrs by Mueller-Hinton Broth micro dilution method", "format": "functional"}, "Staphylococcus aureus [11]": {"system": "Staphylococcus aureus", "test": "Antibacterial activity against Staphylococcus aureus assessed as reduction in bacterial growth incubated for 12 hrs by broth micr-dilution method", "format": "functional"}, "Vibrio cholerae": {"system": "Vibrio cholerae", "test": "Antibacterial activity against Vibrio cholerae assessed as inhibition of bacterial growth", "format": "functional"}, "Escherichia coli [12]": {"system": "Escherichia coli", "test": "Antibacterial activity against Escherichia coli assessed as reduction in bacterial growth incubated for 12 hrs by broth micr-dilution method", "format": "functional"}, "Bacillus subtilis": {"system": "Bacillus subtilis", "test": "Antibacterial activity against Bacillus subtilis assessed as reduction in bacterial growth incubated for 12 hrs by broth micr-dilution method", "format": "functional"}, "[13]": {"system": "Panel NCI-60 (60 carcinoma cell lines)", "test": "Cytotoxicity against human Panel NCI-60 (60 carcinoma cell lines) assessed as reduction in cell growth incubated for 72 hrs by CCK-8 assay", "format": "functional, cell-based"}}, "data": [{"compound": "Cc1cn([C@@H]2O[C@H](CO[Si](C)(C)C(C)(C)C)[C@@]3(OS(=O)(=O)C=C3N)[C@H]2O[Si](C)(C)C(C)(C)C)c(=O)[nH]c1=O", "values": [{"measurement": "EC50", "setting": "[1]", "value": 0.034, "unit": "µg/mL"}]}, {"compound": "Cc1cn([C@@H]2O[C@H](CO[Si](C)(C)C(C)(C)C)[C@@]3(OS(=O)(=O)C=C3N)[C@H]2O)c(=O)[nH]c1=O", "values": [{"measurement": "EC50", "setting": "[1]", "value": "> 100", "unit": "µg/mL"}]}, {"compound": "CC(=O)Nc1ccn([C@@H]2O[C@H](CO[Si](C)(C)C(C)(C)C)[C@@]3(OS(=O)(=O)C=C3N)[C@H]2O[Si](C)(C)C(C)(C)C)c(=O)n1", "values": [{"measurement": "EC50", "setting": "[1]", "value": 0.097, "unit": "µg/mL"}]}, {"compound": "CCOc1cc(Cl)c(C(=O)NC(=O)Nc2nc3c(s2)CCCC3)cc1N1CCOCC1", "values": [{"measurement": "EC50", "setting": "[2]", "value": 240, "unit": "nM"}]}, {"compound": "CCOc1cc(Cl)c(C(=O)NC(=O)Nc2nc3c(s2)CCCC3)cc1-n1cccn1", "values": [{"measurement": "EC50", "setting": "[2]", "value": 18, "unit": "nM"}, {"measurement": "EC50", "setting": "[3]", "value": 250, "unit": "nM"}]}, {"compound": "CCOc1cc(Cl)c(C(=O)NC(=O)Nc2nc3c(s2)C[Si](c2ccccc2)(c2ccc(OC)cc2)CC3)cc1-n1cccn1", "note": "(stereo not given)", "values": [{"measurement": "EC50", "setting": "[2]", "value": 210, "unit": "nM"}, {"measurement": "EC50", "setting": "[3]", "value": 470, "unit": "nM"}]}, {"compound": "CCOc1cc(Cl)c(C(=O)NC(=O)Nc2nc3c(s2)C[Si](C)(c2ccc(OC)cc2)CC3)cc1-n1cccn1", "note": "(stereo not given)", "values": [{"measurement": "EC50", "setting": "[2]", "value": 210, "unit": "nM"}, {"measurement": "EC50", "setting": "[3]", "value": 470, "unit": "nM"}]}, {"compound": "CCCCCCC[Si](C)(C)OCC[N+]1(C)CCc2ccccc2C1.[I-]", "note": "(stereo not given)", "values": [{"measurement": "LC50", "setting": "HT-1080 [4]", "value": "< 1", "unit": "µg/mL"}, {"measurement": "LC50", "setting": "MG-22A [5]", "value": 1, "unit": "µg/mL"}]}, {"compound": "CC[Si](CC)(CC)c1cccc(CN(Cc2ccccn2)Cc2ccccn2)c1O", "values": [{"measurement": "MIC", "setting": "[6]", "value": 1.2, "unit": "µg/mL"}]}, {"compound": "CCC[Si]1(CCC)CCc2nc(NC(=O)NC(=O)c3cc(N4CCOCC4)c(OCC)cc3Cl)sc2C1", "values": [{"measurement": "EC50", "setting": "[2]", "value": 1000, "unit": "nM"}, {"measurement": "EC50", "setting": "[3]", "value": 1200, "unit": "nM"}]}, {"compound": "CC[Si](CC)(CC)c1ccc([Si](C)(CCCN2CCCCC2)c2ccc([Si](CC)(CC)CC)o2)o1", "values": [{"measurement": "IC50", "setting": "HT-1080 [7]", "value": 3, "unit": "µg/mL"}, {"measurement": "IC50", "setting": "MG-22A [8]", "value": 3, "unit": "µg/mL"}]}, {"compound": "CC[Si](CC)(CC)c1ccc([Si](C)(CCCN2CCN(C)CC2)c2ccc([Si](CC)(CC)CC)o2)o1", "values": [{"measurement": "IC50", "setting": "HT-1080 [7]", "value": 3, "unit": "µg/mL"}, {"measurement": "IC50", "setting": "MG-22A [8]", "value": 3, "unit": "µg/mL"}]}, {"compound": "CCOc1cc(Cl)c(C(=O)NC(=O)Nc2nc3c(s2)C[Si](C)(c2c(OC)cccc2OC)CC3)cc1-n1cccn1", "note": "(stereo not given)", "values": [{"measurement": "EC50", "setting": "[2]", "value": 210, "unit": "nM"}, {"measurement": "EC50", "setting": "[3]", "value": 470, "unit": "nM"}]}, {"compound": "C[Si](C)(C)C(S)(C(=S)CCCCn1nnc(Sc2ccccc2)n1)[Si](C)(C)C", "values": [{"measurement": "MIC", "setting": "Pseudomonas aeruginosa", "value": 3.91, "unit": "µg/mL"}, {"measurement": "MIC", "setting": "Staphylococcus aureus [9]", "value": 3.91, "unit": "µg/mL"}, {"measurement": "MIC", "setting": "Salmonella typhimurium", "value": 3.91, "unit": "µg/mL"}, {"measurement": "MIC", "setting": "Escherichia coli [10]", "value": 3.91, "unit": "µg/mL"}]}, {"compound": "CC[Si](CC)(CC)OCC[N+]1(C)CCc2ccccc2C1.[I-]", "note": "(stereo not given)", "values": [{"measurement": "LC50", "setting": "HT-1080 [4]", "value": "< 1", "unit": "µg/mL"}, {"measurement": "LC50", "setting": "MG-22A [5]", "value": 2, "unit": "µg/mL"}]}, {"compound": "CCC[Si]1(c2ccc(OC)cc2)CCc2nc(NC(=O)NC(=O)c3cc(-n4cccn4)c(OCC)cc3Cl)sc2C1", "note": "(stereo not given)", "values": [{"measurement": "EC50", "setting": "[2]", "value": 210, "unit": "nM"}, {"measurement": "EC50", "setting": "[3]", "value": 470, "unit": "nM"}]}, {"compound": "O=c1c(Cl)cn(Cc2cn(CCC[Si-]345OCC[N+]3(CCO4)CCO5)nn2)c(=O)n1Cc1cn(CCC[Si-]234OCC[N+]2(CCO3)CCO4)nn1", "note": "(stereo not given)", "values": [{"measurement": "MIC50", "setting": "Staphylococcus aureus [11]", "value": 0.18, "unit": "µg/mL"}, {"measurement": "MIC50", "setting": "Vibrio cholerae", "value": 0.18, "unit": "µg/mL"}, {"measurement": "MIC50", "setting": "Escherichia coli [12]", "value": 0.18, "unit": "µg/mL"}, {"measurement": "MIC50", "setting": "Bacillus subtilis", "value": 0.18, "unit": "µg/mL"}]}, {"compound": "CCOc1cc(Cl)c(C(=O)NC(=O)Nc2nc3c(s2)C[Si](c2ccccc2)(c2c(OC)cccc2OC)CC3)cc1-n1cccn1", "note": "(stereo not given)", "values": [{"measurement": "EC50", "setting": "[2]", "value": 210, "unit": "nM"}, {"measurement": "EC50", "setting": "[3]", "value": 470, "unit": "nM"}]}, {"compound": "CC1(C)CC(NC(=O)[C@H](Cc2ccc(-c3ccccc3)cc2)NC(=O)c2ccc(OCC[Si](C)(C)C)cc2)CC(C)(C)N1", "values": [{"measurement": "IC50", "setting": "[13]", "value": 1500, "unit": "nM"}]}, {"compound": "CCC[Si]1(c2c(OC)cccc2OC)CCc2nc(NC(=O)NC(=O)c3cc(-n4cccn4)c(OCC)cc3Cl)sc2C1", "note": "(stereo not given)", "values": [{"measurement": "EC50", "setting": "[2]", "value": 210, "unit": "nM"}, {"measurement": "EC50", "setting": "[3]", "value": 470, "unit": "nM"}]}, {"compound": "CCCCCCCC[Si](C)(C)OCC[N+]1(C)CCc2ccccc2C1.[I-]", "note": "(stereo not given)", "values": [{"measurement": "LC50", "setting": "HT-1080 [4]", "value": "< 1", "unit": "µg/mL"}, {"measurement": "LC50", "setting": "MG-22A [5]", "value": 1, "unit": "µg/mL"}]}, {"compound": "CC(C)(C)[Si](C)(C)OC[C@H]1O[C@@H](n2ccc(=O)[nH]c2=O)[C@H](O[Si](C)(C)C(C)(C)C)[C@]12OS(=O)(=O)C=C2N", "values": [{"measurement": "EC50", "setting": "[1]", "value": 0.114, "unit": "µg/mL"}]}, {"compound": "CN1CCN(CCC[Si](C)(c2ccc([Si](C)(C)C)o2)c2ccc([Si](C)(C)C)o2)CC1", "values": [{"measurement": "IC50", "setting": "HT-1080 [7]", "value": 3, "unit": "µg/mL"}, {"measurement": "IC50", "setting": "MG-22A [8]", "value": 3, "unit": "µg/mL"}]}, {"compound": "CCCCCCCCCCC[Si](C)(C)OCC[N+]1(C)CCc2ccccc2C1.[I-]", "note": "(stereo not given)", "values": [{"measurement": "LC50", "setting": "HT-1080 [4]", "value": "< 1", "unit": "µg/mL"}, {"measurement": "LC50", "setting": "MG-22A [5]", "value": 1, "unit": "µg/mL"}]}]}
